Each structure is given as a SMILES string.

These results are taken from patent US9273028B2, “Heterocyclic tyrosine kinase inhibitors” (Biogen MA Inc., priority 2010, dated 2016).

In the test the target is T1, BTK (Homo sapiens, UniProt Q06187).
T1 construct: purchased Upstate 14-552
T1 sequence (Q06187 whole entry): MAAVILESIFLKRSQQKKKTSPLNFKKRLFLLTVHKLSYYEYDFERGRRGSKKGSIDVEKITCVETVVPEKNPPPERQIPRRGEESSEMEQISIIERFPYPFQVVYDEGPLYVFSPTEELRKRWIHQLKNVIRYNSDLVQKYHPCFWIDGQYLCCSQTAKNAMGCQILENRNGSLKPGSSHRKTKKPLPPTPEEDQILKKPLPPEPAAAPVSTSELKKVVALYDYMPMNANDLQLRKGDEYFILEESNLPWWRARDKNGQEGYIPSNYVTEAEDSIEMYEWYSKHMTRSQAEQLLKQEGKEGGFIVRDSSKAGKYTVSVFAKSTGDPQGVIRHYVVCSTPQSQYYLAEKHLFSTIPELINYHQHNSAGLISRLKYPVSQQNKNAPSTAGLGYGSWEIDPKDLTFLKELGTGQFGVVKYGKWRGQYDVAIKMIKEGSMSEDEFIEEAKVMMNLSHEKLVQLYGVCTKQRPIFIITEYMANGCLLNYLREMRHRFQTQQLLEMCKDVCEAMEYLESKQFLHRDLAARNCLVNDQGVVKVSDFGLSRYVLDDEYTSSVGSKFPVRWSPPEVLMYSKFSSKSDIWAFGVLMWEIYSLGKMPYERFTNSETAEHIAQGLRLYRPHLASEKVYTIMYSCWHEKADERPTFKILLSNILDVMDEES
As to the kind of experiment: In vitro BTK kinase assay (BTK-POLYGAT-LS). In kind it is biochemical. The settings on record: IC50 (10 uM ATP). The procedure:
In vitro BTK Kinase Assay
The purpose of the BTK in vitro assay is to determine compound potency against BTK through the measurement of IC50. […] For a typical assay, a 24 μL aliquot of a ATP/peptide master mix (final concentration; ATP 10 μM, polyGAT 100 nM) in kinase buffer (10 mM Tris-HCl pH 7.5, 10 mM MgCl2, 200 μM Na3PO4, 5 mM DTT, 0.01% Triton X-100, and 0.2 mg/ml casein) is added to each well. […] The assay is incubated for 30 minutes before being stopped with 28 μL of a 50 mM EDTA solution. […] The plate is covered and incubated for 45 minutes at room temperature.
Compound `O=C(CNc1cc(Cl)cc(Cl)c1)N1CCOCC(Nc2ncnc3[nH]cnc23)C1` (stereo not shown) [Compound 50] registered an IC50 of 100 to 999 nM.

For `CC1C(Nc2ncnc3[nH]ccc23)CCCN1C(=O)CNc1ccccc1S(=O)(=O)C1CCCC1` (stereo not shown) [Compound 73], the concentration for half-maximal inhibition (IC50) is < 100 nM.

For the compound `CC1CCCCC1NCC(=O)N1CCC[C@H](Nc2ncnc3[nH]ccc23)C1` (stereo partly shown) [Compound 140], the IC50 is > 10000 nM.

With `CN(c1ncnc2[nH]ccc12)[C@H]1CCN(C(=O)CNc2cc(Cl)cc(Cl)c2)C1` [Compound 132], the IC50 is > 10000 nM.

`O=C(CNc1cc(Cl)cc(Cl)c1)N1CCCC(N(CCN2CCCC2)c2ncnc3[nH]ccc23)C1` (stereo not shown) [Compound 54] had an IC50 of 1000 to 10000 nM.

The compound `O=C(CNc1cc(F)cc(Cl)c1)N1CCC[C@@H](Nc2ncnc3[nH]ncc23)C1` [Compound 216] gave an IC50 of 100 to 999 nM.

For the compound `O=C(CNc1cc(Cl)cc(Cl)c1)N1CCCC(N(CCO)c2ncnc3[nH]ccc23)C1` (stereo not shown) [Compound 43], the concentration for half-maximal inhibition (IC50) was < 100 nM.

Consider `CN(c1ncnc2[nH]ncc12)[C@H]1CCCN(C(=O)CNc2cc(C(F)(F)F)cc(C(F)(F)F)c2)C1` [Compound 150], for which the half-inhibitory concentration (IC50) was > 10000 nM.

In the case of `CCn1cnc2cnc(N[C@H]3CCCN(C(=O)CNc4cc(Cl)cc(Cl)c4)C3)cc21` [Compound 158], the IC50 is > 10000 nM.

Consider `O=C(CNc1ccc(C(F)(F)F)cc1)N1CCC[C@H](Nc2ncnc3[nH]ccc23)C1` [Compound 204], for which the half-maximal inhibitory concentration (IC50) is > 10000 nM.

Take `CN(c1ncnc2[nH]ccc12)C1CCCN(C(=O)CNc2ccccc2)C1C(F)(F)F` (stereo not shown) [Compound 15]: the IC50 is < 100 nM.

For the compound `CC1C(Nc2ncnc3[nH]ccc23)CCCN1C(=O)CNc1cc(Cl)cc(C(F)(F)F)c1` (stereo not shown) [Compound 80], the 50% inhibitory concentration (IC50) is < 100 nM.

Regarding `O=C(CNc1cc(Cl)cc(Cl)c1)N1CCCC(N(CCN2CCOCC2)c2ncnc3[nH]ccc23)C1` (stereo not shown) [Compound 86], the IC50 was in the range of 100 to 999 nM.

For `CC[C@@H](Nc1cc(Cl)cc(Cl)c1)C(=O)N1CCCC(Nc2ncnc3[nH]ncc23)C1C` (stereo partly shown) [Compound 65], the concentration for half-maximal inhibition (IC50) is < 100 nM.

As for `O=C(CNc1cc(Cl)cc(Cl)c1)N1CCC2CCN(c3ncnc4[nH]cnc34)C2C1` (stereo not shown) [Compound 111], the half-maximal inhibitory concentration (IC50) is < 100 nM.

Turning to `CC(C)CN(CC(C)C)S(=O)(=O)c1ccccc1NCC(=O)N1CCC[C@H](Nc2ncnc3[nH]ccc23)C1` [Compound 219], the IC50 was > 10000 nM.

With `O=C(CNc1ccc(F)c(Cl)c1)N1CCC2CCN(c3ncnc4[nH]ccc34)C2C1` (stereo not shown) [Compound 77], the half-maximal inhibitory concentration (IC50) was < 100 nM.

Compound `C[C@@H](Nc1cc(Cl)cc(Cl)c1)C(=O)N1CCC[C@H](Nc2ncnc3[nH]ccc23)C1` [Compound 208] displayed an IC50 of 100 to 999 nM.

As to `NC(=O)c1cnc2[nH]ccc2c1N[C@@H]1CCCN(C(=O)CNc2cc(Cl)cc(Cl)c2)[C@@H]1C(F)(F)F` [Compound 227], the IC50 was < 100 nM.

Regarding `CN(c1ncnc2[nH]ccc12)[C@@H]1CCCN(C(=O)CNc2cc(C(F)(F)F)cc(C(F)(F)F)c2)C1` [Compound 166], the IC50 was > 10000 nM.

In the case of `NC(=O)c1cnc2[nH]ccc2c1NC1CCCN(C(=O)CNc2cc(Cl)cc(Cl)c2)C1C(F)(F)F` (stereo not shown) [Compound 228], the concentration for half-maximal inhibition (IC50) is < 100 nM.

In turn, `CCCCC1C(Nc2ncnc3[nH]ccc23)CCCN1C(=O)CNc1cc(Cl)cc(Cl)c1` (stereo not shown) [Compound 41] gave an IC50 of 100 to 999 nM.

For the compound `O=C(CNc1ccccc1F)N1CCC[C@H](Nc2ncnc3[nH]ncc23)C1` [Compound 203], the IC50 is > 10000 nM.

As to `CC1C(Nc2ncnc3[nH]ccc23)CCCN1C(=O)CNc1ccccc1S(=O)(=O)N1CCCC1` (stereo not shown) [Compound 79], the IC50 is < 100 nM.

On to `CN(c1ncnc2[nH]ncc12)[C@H]1CCN(C(=O)CNc2cc(Cl)cc(Cl)c2)C1` [Compound 130], for which the IC50 is > 10000 nM.

Consider `O=C(CNc1cc(Cl)cc(Cl)c1)N1CCC[C@@H](Nc2ncnc3[nH]cc(F)c23)C1` [Compound 6], for which the IC50 fell in the range of 100 to 999 nM.

`CN(c1ncnc2[nH]ncc12)[C@H]1CCCN(C(=O)CNc2cc(Cl)cc(C(F)(F)F)c2)C1` [Compound 145] gave an IC50 of 1000 to 10000 nM.

Compound `Nc1cc(N[C@H]2CCCN(C(=O)CNc3cc(Cl)cc(Cl)c3)C2)ncn1` [Compound 133] returned an IC50 of 1000 to 10000 nM.

Turning to `O=C(CNc1ccccc1)N1CCCC(Nc2ncnc3[nH]ccc23)C1C(F)(F)F` (stereo not shown) [Compound 18], the half-maximal inhibitory concentration (IC50) lay within 100 to 999 nM.

As for `CC1C(Nc2ncnc3[nH]ncc23)CCCN1C(=O)CNc1cc(F)cc(Cl)c1` (stereo not shown) [Compound 68], the IC50 is < 100 nM.

As for `CC1CCCC(NCC(=O)N2CCC[C@H](Nc3ncnc4[nH]ccc34)C2)C1` (stereo partly shown) [Compound 117], the half-inhibitory concentration (IC50) was > 10000 nM.

Take `CCC1CC2CCN(C(=O)CNc3cc(Cl)cc(Cl)c3)CC2N1c1ncnc2[nH]ccc12` (stereo not shown) [Compound 42]: the IC50 is < 100 nM.

Turning to `NC(=O)c1c(N)ncnc1NC1CCCN(C(=O)CNc2cc(Cl)cc(Cl)c2)C1` (stereo not shown) [Compound 82], the half-maximal inhibitory concentration (IC50) is > 10000 nM.

Take `CC1CCC(NCC(=O)N2CCC[C@H](Nc3ncnc4[nH]ccc34)C2)CC1` (stereo partly shown) [Compound 139]: the concentration for half-maximal inhibition (IC50) is > 10000 nM.

In the case of `O=C(CNc1cc(Cl)cc(Cl)c1)N1CCC[C@@H](N(CCO)c2ncnc3[nH]ccc23)C1` [Compound 35], the IC50 was < 100 nM.

On to `CC1C(N(C)c2ncnc3[nH]ncc23)CCCN1C(=O)CNc1cc(Cl)cc(Cl)c1` (stereo not shown) [Compound 55], for which the 50% inhibitory concentration (IC50) was < 100 nM.

Take `C[C@@H]1[C@@H](Nc2ncnc3[nH]ncc23)CCCN1C(=O)CNc1cc(F)cc(Cl)c1` [Compound 24]: the half-maximal inhibitory concentration (IC50) fell in the range of 1000 to 10000 nM.

For the compound `O=C(CNC1CCCCC1)N1CCC[C@H](Nc2ncnc3[nH]ccc23)C1` [Compound 162], the IC50 was > 10000 nM.

`O=C(CNC1CCCC1)N1CCC[C@H](Nc2ncnc3[nH]ccc23)C1` [Compound 149]: the concentration for half-maximal inhibition (IC50) is > 10000 nM.

Consider `CC1C(Nc2ncnc3[nH]ncc23)CCCN1C(=O)[C@@H](C)Nc1cc(Cl)cc(Cl)c1` (stereo partly shown) [Compound 60], for which the concentration for half-maximal inhibition (IC50) is < 100 nM.

Take `CN(c1ncnc2[nH]cnc12)[C@H]1CCCN(C(=O)CNc2cc(Cl)cc(Cl)c2)C1` [Compound 151]: the half-inhibitory concentration (IC50) was in the range of 100 to 999 nM.

On to `CN(c1ncnc(N)c1C#N)[C@H]1CCCN(C(=O)CNc2cc(Cl)cc(Cl)c2)C1` [Compound 116], for which the concentration for half-maximal inhibition (IC50) was > 10000 nM.

Compound `C[C@H]1[C@@H](Nc2ncnc3[nH]ncc23)CCCN1C(=O)CNc1ccccc1S(=O)(=O)N1CCCCC1` [Compound 21] came in with an IC50 of 1000 to 10000 nM.

On to `Nc1ncnc2c1ncn2C1CCCN(C(=O)CNc2cc(Cl)cc(Cl)c2)C1` (stereo not shown) [Compound 233], for which the concentration for half-maximal inhibition (IC50) was > 10000 nM.

Take `CC1C(Nc2ncnc(N)c2F)CCCN1C(=O)CNc1cc(Cl)cc(Cl)c1` (stereo not shown) [Compound 62]: the IC50 was < 100 nM.

Take `O=C(CNc1ccc(F)cc1)N1CCC[C@H](Nc2ncnc3[nH]ncc23)C1` [Compound 205]: the IC50 was > 10000 nM.

As for `CC1C2C(CCN1C(=O)CNc1cc(Cl)cc(Cl)c1)CCN2c1ncnc2[nH]ccc12` (stereo not shown) [Compound 57], the half-inhibitory concentration (IC50) was < 100 nM.

`CN(c1ncnc2[nH]ccc12)[C@@H]1CCN(C(=O)CNc2cc(Cl)cc(Cl)c2)C1` [Compound 127] returned an IC50 of 1000 to 10000 nM.

Consider `O=C(CNc1ccccc1S(=O)(=O)N1CCCCC1)N1CCC[C@H](Nc2ncnc3[nH]ccc23)C1` [Compound 138], for which the IC50 is > 10000 nM.

Turning to `O=CNc1cnc(Br)cc1N[C@H]1CCCN(C(=O)CN(C=O)c2cc(Cl)cc(Cl)c2)C1` [Compound 121], the concentration for half-maximal inhibition (IC50) was > 10000 nM.

`CN(c1ncnc2[nH]ncc12)C1CC2CC1N(C(=O)CNc1cc(Cl)cc(Cl)c1)C2` (stereo not shown) [Compound 141] registered an IC50 of 100 to 999 nM.

With `O=C(CNc1cc(Cl)cc(Cl)c1)N1CCC[C@H](Nc2ncnc3[nH]ccc23)[C@@H]1C(F)(F)F` [Compound 11], the IC50 fell in the range of 100 to 999 nM.

Consider `CCN(c1ncnc2[nH]ccc12)C1CCCN(C(=O)CNc2cc(Cl)cc(Cl)c2)C1` (stereo not shown) [Compound 108], for which the half-maximal inhibitory concentration (IC50) lay within 100 to 999 nM.

For `O=C(CNc1cc(Cl)cc(Cl)c1)N1CCC[C@H](Nc2ccnc3[nH]ccc23)C1` [Compound 169], the IC50 was < 100 nM.

On to `O=C(CNc1cc(F)cc(C(F)(F)F)c1)N1CCC[C@H](Nc2ncnc3[nH]ncc23)C1` [Compound 177], for which the IC50 fell in the range of 1000 to 10000 nM.

Turning to `CC1C(Nc2ncnc3[nH]ncc23)CCCN1C(=O)[C@H](Nc1cc(Cl)cc(Cl)c1)C1CC1` (stereo partly shown) [Compound 52], the IC50 is < 100 nM.

As for `O=C(CNc1cc(Cl)cc(Cl)c1)N1C[C@@H](Nc2ncnc3[nH]ccc23)C[C@@H](C(F)(F)F)C1` [Compound 122], the half-maximal inhibitory concentration (IC50) fell in the range of 100 to 999 nM.

The compound `CC(C)N(c1ncnc2[nH]ccc12)C1CCCN(C(=O)CNc2cc(Cl)cc(Cl)c2)C1` (stereo not shown) [Compound 84] had a half-maximal inhibitory concentration (IC50) of 100 to 999 nM.

For `O=C(CNc1cc(Cl)cc(Cl)c1)N1CCC(c2ccccc2)C(Nc2ncnc3[nH]ccc23)C1` (stereo not shown) [Compound 137], the IC50 is > 10000 nM.

As to `CC1CC(N(C)c2ncnc3[nH]ncc23)CN(C(=O)CNc2cc(Cl)cc(Cl)c2)C1` (stereo not shown) [Compound 87], the IC50 was < 100 nM.

For the compound `CCCN(CC(C)C)S(=O)(=O)c1ccccc1NCC(=O)N1CC[C@@H](C)[C@H](Nc2ncnc3[nH]ncc23)C1` [Compound 213], the IC50 was > 10000 nM.

The compound `O=C(CNc1cc(Cl)cc(Cl)c1)N1CC(Nc2ncnc3[nH]ncc23)Cc2ccccc21` (stereo not shown) [Compound 191] showed a 50% inhibitory concentration (IC50) of 100 to 999 nM.

As to `CN(c1ncnc2[nH]ccc12)C1CCCN(C(=O)CNc2cc(F)cc(Cl)c2)C1C(F)(F)F` (stereo not shown) [Compound 9], the half-maximal inhibitory concentration (IC50) was < 100 nM.

As to `O=C1CCc2c(ncnc2N[C@H]2CCCN(C(=O)CNc3cc(Cl)cc(Cl)c3)C2)N1` [Compound 154], the IC50 is > 10000 nM.

For `Nc1ncnc2c1cnn2C1CCCN(C(=O)CNc2cc(Cl)cc(Cl)c2)C1` (stereo not shown) [Compound 232], the IC50 was > 10000 nM.

Turning to `O=C(CNc1cc(Cl)cc(Cl)c1)N1CCC[C@H](Nc2cc(Br)ncc2[N+](=O)[O-])C1` [Compound 136], the 50% inhibitory concentration (IC50) was > 10000 nM.

As to `CCC1C(Nc2ncnc(N)c2F)CCCN1C(=O)CNc1cc(F)cc(Cl)c1` (stereo not shown) [Compound 5], the 50% inhibitory concentration (IC50) was in the range of 1000 to 10000 nM.

As usually defined, the IC50 is the point on the concentration scale where inhibition reaches its midpoint. A high value points to weaker potency in that assay.
